In ChEMBL document CHEMBL3044945, “Synthesis of 1,3,5-trisubstituted pyrazoline nucleus containing compounds and screening for antimicrobial activity” (2012):
Converted amounts (≈) assume the structure as drawn.

What was measured:
Type in all cases: functional
Pseudomonas fluorescens [1] = assay: Antibacterial activity against Pseudomonas fluorescens MTCC 2421 after 24 to 48 hr by tube dilution method
Pseudomonas fluorescens [2] = assay: Antibacterial activity against Pseudomonas fluorescens MTCC 2421 at 500 ug/ml after 48 hr by cup-plate method; conditions: MTCC 2421, 48 h, read-out: DIZ
Bacillus subtilis [3] = assay: Antibacterial activity against Bacillus subtilis MTCC 441 at 750 ug/ml after 48 hr by cup-plate method; conditions: MTCC 441, 48 h, read-out: DIZ
Escherichia coli [4] = assay: Antibacterial activity against Escherichia coli MTCC 1573 at 250 ug/ml after 48 hr by cup-plate method; conditions: MTCC 1573, 48 h, read-out: DIZ
Bacillus pumilus [5] = assay: Antibacterial activity against Bacillus pumilus MTCC 1456 at 250 ug/ml after 48 hr by cup-plate method; conditions: MTCC 1456, 48 h, read-out: DIZ
Pseudomonas aeruginosa [6] = assay: Antibacterial activity against Pseudomonas aeruginosa MTCC 424 at 500 ug/ml after 48 hr by cup-plate method; conditions: MTCC 424, 48 h, read-out: DIZ
Escherichia coli [7] = assay: Antibacterial activity against Escherichia coli MTCC 1573 at 1250 ug/ml after 48 hr by cup-plate method; conditions: MTCC 1573, 48 h, read-out: DIZ
Escherichia coli [8] = assay: Antibacterial activity against Escherichia coli MTCC 1573 at 1000 ug/ml after 48 hr by cup-plate method; conditions: MTCC 1573, 48 h, read-out: DIZ
Pseudomonas aeruginosa [9] = assay: Antibacterial activity against Pseudomonas aeruginosa MTCC 424 at 1250 ug/ml after 48 hr by cup-plate method; conditions: MTCC 424, 48 h, read-out: DIZ
Staphylococcus aureus [10] = assay: Antibacterial activity against Staphylococcus aureus MTCC 1430 at 750 ug/ml after 48 hr by cup-plate method; conditions: MTCC 1430, 48 h, read-out: DIZ
Pseudomonas aeruginosa [11] = assay: Antibacterial activity against Pseudomonas aeruginosa MTCC 424 after 24 to 48 hr by tube dilution method
Bacillus subtilis [12] = assay: Antibacterial activity against Bacillus subtilis MTCC 441 at 500 ug/ml after 48 hr by cup-plate method; conditions: MTCC 441, 48 h, read-out: DIZ
Pseudomonas aeruginosa [13] = assay: Antibacterial activity against Pseudomonas aeruginosa MTCC 424 at 250 ug/ml after 48 hr by cup-plate method; conditions: MTCC 424, 48 h, read-out: DIZ
Aspergillus niger [14] = assay: Antifungal activity against Aspergillus niger MTCC 2546 at 1250 ug/ml after 48 hr by cup-plate method; conditions: MTCC 2546, 48 h, read-out: DIZ
Bacillus pumilus [15] = assay: Antibacterial activity against Bacillus pumilus MTCC 1456 at 500 ug/ml after 48 hr by cup-plate method; conditions: MTCC 1456, 48 h, read-out: DIZ
Staphylococcus aureus [16] = assay: Antibacterial activity against Staphylococcus aureus MTCC 1430 at 500 ug/ml after 48 hr by cup-plate method; conditions: MTCC 1430, 48 h, read-out: DIZ
Bacillus subtilis [17] = assay: Antibacterial activity against Bacillus subtilis MTCC 441 after 24 to 48 hr by tube dilution method
Pseudomonas fluorescens [18] = assay: Antibacterial activity against Pseudomonas fluorescens MTCC 2421 at 750 ug/ml after 48 hr by cup-plate method; conditions: MTCC 2421, 48 h, read-out: DIZ
Pseudomonas aeruginosa [19] = assay: Antibacterial activity against Pseudomonas aeruginosa MTCC 424 at 1000 ug/ml after 48 hr by cup-plate method; conditions: MTCC 424, 48 h, read-out: DIZ
Pseudomonas aeruginosa [20] = assay: Antibacterial activity against Pseudomonas aeruginosa MTCC 424 at 100 ug/ml after 48 hr by cup-plate method; conditions: MTCC 424, 48 h, read-out: DIZ
Bacillus pumilus [21] = assay: Antibacterial activity against Bacillus pumilus MTCC 1456 at 100 ug/ml after 48 hr by cup-plate method; conditions: MTCC 1456, 48 h, read-out: DIZ
Bacillus pumilus [22] = assay: Antibacterial activity against Bacillus pumilus MTCC 1456 after 24 to 48 hr by tube dilution method
Bacillus subtilis [23] = assay: Antibacterial activity against Bacillus subtilis MTCC 441 at 250 ug/ml after 48 hr by cup-plate method; conditions: MTCC 441, 48 h, read-out: DIZ
Pseudomonas aeruginosa [24] = assay: Antibacterial activity against Pseudomonas aeruginosa MTCC 424 at 750 ug/ml after 48 hr by cup-plate method; conditions: MTCC 424, 48 h, read-out: DIZ
Staphylococcus aureus [25] = assay: Antibacterial activity against Staphylococcus aureus MTCC 1430 at 1000 ug/ml after 48 hr by cup-plate method; conditions: MTCC 1430, 48 h, read-out: DIZ
Bacillus subtilis [26] = assay: Antibacterial activity against Bacillus subtilis MTCC 441 at 1250 ug/ml after 48 hr by cup-plate method; conditions: MTCC 441, 48 h, read-out: DIZ
Staphylococcus aureus [27] = assay: Antibacterial activity against Staphylococcus aureus MTCC 1430 at 250 ug/ml after 48 hr by cup-plate method; conditions: MTCC 1430, 48 h, read-out: DIZ
Aspergillus niger [28] = assay: Antifungal activity against Aspergillus niger MTCC 2546 at 1000 ug/ml after 48 hr by cup-plate method; conditions: MTCC 2546, 48 h, read-out: DIZ
Bacillus subtilis [29] = assay: Antibacterial activity against Bacillus subtilis MTCC 441 at 100 ug/ml after 48 hr by cup-plate method; conditions: MTCC 441, 48 h, read-out: DIZ
Penicillium chrysogenum [30] = assay: Antifungal activity against Penicillium chrysogenum MTCC 161 at 1000 ug/ml after 48 hr by cup-plate method; conditions: MTCC 161, 48 h, read-out: DIZ
Micrococcus luteus [31] = assay: Antibacterial activity against Micrococcus luteus MTCC 1538 at 250 ug/ml after 48 hr by cup-plate method; conditions: MTCC 1538, 48 h, read-out: DIZ
Aspergillus niger [32] = assay: Antifungal activity against Aspergillus niger MTCC 2546 at 250 ug/ml after 48 hr by cup-plate method; conditions: MTCC 2546, 48 h, read-out: DIZ
Escherichia coli [33] = assay: Antibacterial activity against Escherichia coli MTCC 1573 at 750 ug/ml after 48 hr by cup-plate method; conditions: MTCC 1573, 48 h, read-out: DIZ
Escherichia coli [34] = assay: Antibacterial activity against Escherichia coli MTCC 1573 at 500 ug/ml after 48 hr by cup-plate method; conditions: MTCC 1573, 48 h, read-out: DIZ
Penicillium chrysogenum [35] = assay: Antifungal activity against Penicillium chrysogenum MTCC 161 at 1250 ug/ml after 48 hr by cup-plate method; conditions: MTCC 161, 48 h, read-out: DIZ
Aspergillus niger [36] = assay: Antifungal activity against Aspergillus niger MTCC 2546 at 500 ug/ml after 48 hr by cup-plate method; conditions: MTCC 2546, 48 h, read-out: DIZ
Micrococcus luteus [37] = assay: Antibacterial activity against Micrococcus luteus MTCC 1538 at 1250 ug/ml after 48 hr by cup-plate method; conditions: MTCC 1538, 48 h, read-out: DIZ
Bacillus subtilis [38] = assay: Antibacterial activity against Bacillus subtilis MTCC 441 at 1000 ug/ml after 48 hr by cup-plate method; conditions: MTCC 441, 48 h, read-out: DIZ
Staphylococcus aureus [39] = assay: Antibacterial activity against Staphylococcus aureus MTCC 1430 after 24 to 48 hr by tube dilution method
Micrococcus luteus [40] = assay: Antibacterial activity against Micrococcus luteus MTCC 1538 after 24 to 48 hr by tube dilution method
Bacillus pumilus [41] = assay: Antibacterial activity against Bacillus pumilus MTCC 1456 at 1250 ug/ml after 48 hr by cup-plate method; conditions: MTCC 1456, 48 h, read-out: DIZ
Penicillium chrysogenum [42] = assay: Antifungal activity against Penicillium chrysogenum MTCC 161 at 500 ug/ml after 48 hr by cup-plate method; conditions: MTCC 161, 48 h, read-out: DIZ
Staphylococcus aureus [43] = assay: Antibacterial activity against Staphylococcus aureus MTCC 1430 at 1250 ug/ml after 48 hr by cup-plate method; conditions: MTCC 1430, 48 h, read-out: DIZ
Micrococcus luteus [44] = assay: Antibacterial activity against Micrococcus luteus MTCC 1538 at 750 ug/ml after 48 hr by cup-plate method; conditions: MTCC 1538, 48 h, read-out: DIZ

## O=[N+]([O-])c1ccc(C2CC(c3cccc4ccccc34)=NN2)cc1 (centres undefined)
Pseudomonas fluorescens [1]
  MIC: 150 µg/mL (≈ 473 µM)
Pseudomonas fluorescens [2]
  zone of inhibition at 500 µg/mL: 11 mm
Bacillus subtilis [3]
  zone of inhibition at 750 µg/mL: 15 mm
Escherichia coli [4]
  zone of inhibition at 250 µg/mL: 10 mm
Bacillus pumilus [5]
  zone of inhibition at 250 µg/mL: 9 mm
Pseudomonas aeruginosa [6]
  zone of inhibition at 500 µg/mL: 11 mm
Escherichia coli [7]
  zone of inhibition at 1250 µg/mL: 18 mm
Escherichia coli [8]
  zone of inhibition at 1000 µg/mL: 15 mm
Pseudomonas aeruginosa [9]
  zone of inhibition at 1250 µg/mL: 15 mm
Staphylococcus aureus [10]
  zone of inhibition at 750 µg/mL: 13 mm
Pseudomonas aeruginosa [11]
  MIC: 30 µg/mL (≈ 94.5 µM)
Bacillus subtilis [12]
  zone of inhibition at 500 µg/mL: 13 mm
Pseudomonas aeruginosa [13]
  zone of inhibition at 250 µg/mL: 10 mm
Aspergillus niger [14]
  zone of inhibition at 1250 µg/mL: 18 mm
Bacillus pumilus [15]
  zone of inhibition at 500 µg/mL: 10 mm
Staphylococcus aureus [16]
  zone of inhibition at 500 µg/mL: 11 mm
Bacillus subtilis [17]
  MIC: 30 µg/mL (≈ 94.5 µM)
Pseudomonas fluorescens [18]
  zone of inhibition at 750 µg/mL: 14 mm
Pseudomonas aeruginosa [19]
  zone of inhibition at 1000 µg/mL: 13 mm
Pseudomonas aeruginosa [20]
  zone of inhibition at 100 µg/mL: 9 mm
Bacillus pumilus [21]
  zone of inhibition at 100 µg/mL: 8 mm
Bacillus pumilus [22]
  MIC: 30 µg/mL (≈ 94.5 µM)
Bacillus subtilis [23]
  zone of inhibition at 250 µg/mL: 12 mm
Pseudomonas aeruginosa [24]
  zone of inhibition at 750 µg/mL: 12 mm
Staphylococcus aureus [25]
  zone of inhibition at 1000 µg/mL: 14 mm
Bacillus subtilis [26]
  zone of inhibition at 1250 µg/mL: 19 mm
Staphylococcus aureus [27]
  zone of inhibition at 250 µg/mL: 10 mm
Aspergillus niger [28]
  zone of inhibition at 1000 µg/mL: 16 mm
Bacillus subtilis [29]
  zone of inhibition at 100 µg/mL: 10 mm
Penicillium chrysogenum [30]
  zone of inhibition at 1000 µg/mL: 15 mm
Micrococcus luteus [31]
  zone of inhibition at 250 µg/mL: 10 mm
Aspergillus niger [32]
  zone of inhibition at 250 µg/mL: 9 mm
Escherichia coli [33]
  zone of inhibition at 750 µg/mL: 13 mm
Escherichia coli [34]
  zone of inhibition at 500 µg/mL: 11 mm
Penicillium chrysogenum [35]
  zone of inhibition at 1250 µg/mL: 17 mm
Aspergillus niger [36]
  zone of inhibition at 500 µg/mL: 10 mm
Micrococcus luteus [37]
  zone of inhibition at 1250 µg/mL: 15 mm
Bacillus subtilis [38]
  zone of inhibition at 1000 µg/mL: 16 mm
Staphylococcus aureus [39]
  MIC: 50 µg/mL (≈ 158 µM)
Micrococcus luteus [40]
  MIC: 30 µg/mL (≈ 94.5 µM)
Bacillus pumilus [41]
  zone of inhibition at 1250 µg/mL: 22 mm
Penicillium chrysogenum [42]
  zone of inhibition at 500 µg/mL: 10 mm
Staphylococcus aureus [43]
  zone of inhibition at 1250 µg/mL: 16 mm
Micrococcus luteus [44]
  zone of inhibition at 750 µg/mL: 12 mm
